Structures are written as SMILES.

The target in test [1] is T1, AChE (EC 3.1.1.7) from electric eel (Electrophorus electricus, UniProt O42275).
T1 construct: purchased Sigma-Aldrich C3389
In words: biochemical. Conditions: for IC50: AChE from electric eel, mean ± SEM of three experiments; for Selectivity index (SI) = BuChE IC50/AChE IC50: eqBuChE IC50 / eeAChE IC50. On the procedure: (§1) AChE (EC 3.1.1.7, Type VI-S, from electric eel, C3389; from human, C1682) and BuChE (EC 3.1.1.8, from equine serum, C0663; from human, B4186), 5,5'-dithiobis (2-nitrobenzoic acid) (DTNB, D218200), acetylthiocholine iodide (ATC, A5751), and butyrylthiocholine iodide (BTC, B3253) were obtained from Sigma-Aldrich (St. Louis, MO).
(§2) The inhibitory effects of the synthesised compounds in this paper were evaluated according to our previously reported method. […] ATC/BTC iodide solution (0.075 M) was prepared in deionised water. […] The assay buffer was prepared as follows: potassium dihydrogen phosphate (1.36 g, 10 mmol) was dissolved in 100 ml of water. The pH of the solution was then adjusted to 8.0 ± 0.1 with KOH. Stock solutions of the test samples were dissolved in ethanol to give a final concentration of 10^−4 M when diluted to the final volume of 3.32 ml. For each compound, a dilution series of at least five different concentrations (normally 10^−5–10^−9 M) were prepared.
(§3) For measurement, a cuvette containing 3.0 ml of phosphate buffer, 100 µL of AChE or BuChE, 100 µL of DTNB, and 100 µL of the test compound solution were added in sequence. The reaction was initiated after adding 20 µL of ATC or BTC, and the solution was mixed immediately. […] For the reference value, 100 µL of water replaced the test compound solution. For the blank control, additionally 100 µL of water replaced the enzyme solution. The measurement for each concentration was assayed in triplicate. GraphPad Prism 5 was used for data processing. The inhibition curve was fitted by plotting percentage enzyme activity (100% for the reference) versus logarithm of test compound concentration. The IC50 values were calculated according to the curve, and the data were shown in mean ± SEM.
(§4) The inhibitory effects on ChEs of all the target compounds were determined according to Ellman’s method. AChE from electrophorus electricus (eeAChE) and BuChE from equine serum (eqBuChE) were used in the assays.

The target in test [2] is T2, BuChE (EC 3.1.1.8) from horse serum (Equus caballus, UniProt P81908).
T2 construct: purchased Sigma-Aldrich C0663; host or cells: equine serum
In words: biochemical. The following applies: BuChE from horse serum; mean ± SEM of three experiments. The test is classed as biochemical. On the procedure: as §1, §2, §3, §4

T1 sequence (O42275 24-633): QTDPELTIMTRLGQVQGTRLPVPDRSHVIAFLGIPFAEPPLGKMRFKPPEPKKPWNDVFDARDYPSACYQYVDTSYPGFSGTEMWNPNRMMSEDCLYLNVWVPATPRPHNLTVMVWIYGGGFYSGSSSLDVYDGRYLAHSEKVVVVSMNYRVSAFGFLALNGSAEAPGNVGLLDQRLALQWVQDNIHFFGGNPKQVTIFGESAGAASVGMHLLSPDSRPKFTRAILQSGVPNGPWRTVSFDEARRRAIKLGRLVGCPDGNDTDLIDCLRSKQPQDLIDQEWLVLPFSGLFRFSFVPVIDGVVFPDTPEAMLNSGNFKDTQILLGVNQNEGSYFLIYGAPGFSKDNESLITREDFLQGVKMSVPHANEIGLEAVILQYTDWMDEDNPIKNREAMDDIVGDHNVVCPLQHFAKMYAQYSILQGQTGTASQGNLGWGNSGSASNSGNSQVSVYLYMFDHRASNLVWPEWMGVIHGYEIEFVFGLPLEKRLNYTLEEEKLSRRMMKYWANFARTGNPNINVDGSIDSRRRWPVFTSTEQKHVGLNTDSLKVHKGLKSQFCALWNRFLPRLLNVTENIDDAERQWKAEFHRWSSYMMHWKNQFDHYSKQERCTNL
T2 sequence (P81908 whole entry): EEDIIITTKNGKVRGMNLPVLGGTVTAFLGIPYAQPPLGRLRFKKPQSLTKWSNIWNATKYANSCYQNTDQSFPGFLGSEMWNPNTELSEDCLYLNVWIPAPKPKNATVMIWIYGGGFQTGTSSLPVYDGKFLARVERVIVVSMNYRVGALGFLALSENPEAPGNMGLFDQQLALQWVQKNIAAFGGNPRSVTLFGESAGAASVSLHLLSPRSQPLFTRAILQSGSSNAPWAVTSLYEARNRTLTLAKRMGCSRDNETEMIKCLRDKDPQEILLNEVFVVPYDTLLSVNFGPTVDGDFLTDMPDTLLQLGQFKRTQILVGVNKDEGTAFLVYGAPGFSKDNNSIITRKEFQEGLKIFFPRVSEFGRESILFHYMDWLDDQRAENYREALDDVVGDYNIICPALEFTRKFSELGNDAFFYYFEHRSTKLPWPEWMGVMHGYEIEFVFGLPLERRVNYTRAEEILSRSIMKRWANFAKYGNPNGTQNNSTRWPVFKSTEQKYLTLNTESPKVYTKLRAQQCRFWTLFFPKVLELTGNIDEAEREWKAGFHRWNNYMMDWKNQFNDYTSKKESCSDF

The term IC50 denotes the concentration that inhibits the measured activity by half. Low readings indicate inhibition by little substance, high ones a need for much substance. Take `COc1cc(/C=C/C(=O)NCCCCCCNc2c3c(nc4ccccc24)CCCC3)ccc1OCc1ccc(Cl)cc1` [Compound 37]: the figures for the IC50 in test [1] and in test [2] were 104 ± 26.4 nM and 22.6 ± 7.1 nM, respectively.

`COc1cc(/C=C/C(=O)NCCCCCCNc2c3c(nc4ccccc24)CCCC3)ccc1OCc1ccc(C)cc1` [Compound 38]: in test [1], inhibition was half-maximal at 128 ± 13.3 nM (IC50) and the “Selectivity index (SI) = BuChE IC50/AChE IC50” value amounted to 0.5. The molecule further yielded an IC50 in test [2] of 58.4 ± 7.5 nM.

Regarding `O=C(C=Cc1ccccc1)NCCCCCCNc1c2c(nc3ccccc13)CCCC2` [Compound 12, N-(6-((1,2,3,4-tetrahydroacridin-9-yl)amino)hexyl)cinnamamide], the IC50 in test [1] amounted to 26.5 ± 10.7 nM; in test [2] it was 34.4 ± 16.6 nM. Moreover, the “Selectivity index (SI) = BuChE IC50/AChE IC50” value in test [1] was found to be 1.3.

`O=C(/C=C/c1ccc(O)cc1)NCCCCCCNc1c2c(nc3ccccc13)CCCC2` [Compound 34, (E)-3-(4-hydroxyphenyl)-N-(6-((1,2,3,4-tetrahydroacridin-9-yl)amino)hexyl)acrylamide]: in test [1], the midpoint of inhibition, the IC50, lay at 2.2 ± 0.3 nM and the “Selectivity index (SI) = BuChE IC50/AChE IC50” value is listed as 19.8. The molecule also registered a concentration for half-maximal inhibition (IC50) in test [2] of 43.5 ± 9.3 nM.

Turning to `O=C(/C=C/c1ccccc1C(F)(F)F)NCCCCCCNc1c2c(nc3ccccc13)CCCC2` [Compound 21, (E)-N-(6-((1,2,3,4-tetrahydroacridin-9-yl)amino)hexyl)-3–(2-(trifluoromethyl)phenyl)acrylamide], the IC50 in test [1] was found to be 41.7 ± 8.5 nM; in test [2], 2.4 ± 0.6 nM. Besides, the “Selectivity index (SI) = BuChE IC50/AChE IC50” value in test [1] worked out at 0.04.

With `O=C(/C=C/c1cccc(Cl)c1)NCCCCCCNc1c2c(nc3ccccc13)CCCC2` [Compound 26, (E)-3-(3-chlorophenyl)-N-(6-((1,2,3,4-tetrahydroacridin-9-yl)amino)hexyl)acrylamide], in test [1], the half-inhibitory concentration (IC50) is 16.2 ± 6.5 nM and the “Selectivity index (SI) = BuChE IC50/AChE IC50” value came out at 0.6. The molecule further yielded an IC50 in test [2] of 9.2 ± 2.5 nM.

Turning to `COc1cc(/C=C/C(=O)NCCCCCCNc2c3c(nc4ccccc24)CCCC3)ccc1OCc1ccccc1` [Compound 36], in test [1], 86.3 ± 30 nM corresponded to half-maximal inhibition (IC50) and the “Selectivity index (SI) = BuChE IC50/AChE IC50” value turned out to be 0.3. This molecule showed an IC50 in test [2] of 29.8 ± 7.3 nM.

For the molecule `COc1ccc(/C=C/C(=O)NCCCCCCNc2c3c(nc4ccccc24)CCCC3)c(OC)c1OC` [Compound 31, (E)-N-(6-((1,2,3,4-tetrahydroacridin-9-yl)amino)hexyl)-3–(2,3,4-trimethoxyphenyl)acrylamide], in test [1], it took 24.1 ± 8.1 nM to reach half-maximal inhibition (IC50) and the “Selectivity index (SI) = BuChE IC50/AChE IC50” value is on record as 0.3. Besides, half-maximal inhibition in test [2] (IC50) required 8.1 ± 2 nM.

For the molecule `N#Cc1cccc(/C=C/C(=O)NCCCCCCNc2c3c(nc4ccccc24)CCCC3)c1` [Compound 29], in test [1], the 50% inhibitory concentration (IC50) stood at 5.1 ± 0.8 nM and the “Selectivity index (SI) = BuChE IC50/AChE IC50” value was 13.4. Besides, in test [2], the half-maximal inhibitory concentration (IC50) came out at 68.5 ± 13.6 nM.

In the case of `O=C(/C=C/c1ccccc1Cl)NCCCCCCNc1c2c(nc3ccccc13)CCCC2` [Compound 25, (E)-3-(2-chlorophenyl)-N-(6-((1,2,3,4-tetrahydroacridin-9-yl)amino)hexyl)acrylamide], in test [1], the IC50 was determined as 14.2 ± 3.2 nM and the “Selectivity index (SI) = BuChE IC50/AChE IC50” value was 0.6. Also, in test [2], inhibition was half-maximal at 8.7 ± 2.7 nM (IC50).

For the molecule `Cc1ccc(/C=C/C(=O)NCCCCCCNc2c3c(nc4ccccc24)CCCC3)cc1` [Compound 16, (E)-N-(6-((1,2,3,4-tetrahydroacridin-9-yl)amino)hexyl)-3-(p-tolyl)acrylamide], in test [1], 22 ± 3.7 nM corresponded to half-maximal inhibition (IC50) and the “Selectivity index (SI) = BuChE IC50/AChE IC50” value amounted to 2.5. This molecule had an IC50 in test [2] of 54.4 ± 11.7 nM.

With `O=C(/C=C/c1cccc(C(F)(F)F)c1)NCCCCCCNc1c2c(nc3ccccc13)CCCC2` [Compound 22, (E)-N-(6-((1,2,3,4-tetrahydroacridin-9-yl)amino)hexyl)-3–(3-(trifluoromethyl)phenyl)acrylamide], the IC50 in test [1] was 61.3 ± 16.7 nM; in test [2], 81.1 ± 15.7 nM. The “Selectivity index (SI) = BuChE IC50/AChE IC50” value in test [1] is 1.3.
